Test results taken from patent US11925662B2, “Compositions and methods of enhancing anti-tumor response using hybrid neutrophils” (THE TRUSTEES OF THE UNIVERSITY OF PENNSYLVANIA, priority 2015, dated 2024).

Assays:
PD-L1 = PD-L1 expression on HLA-DR+ BMNs (flow cytometry); assay type: cell-based, human; settings: IFN-γ at more than 1 ng/ml, with GM-CSF 50 pg/ml
Description: FIGS. 16A-16F are a series of graphs showing tumor-derived IFN-γ and GM-SCF synergistically differentiate immature neutrophils into a subset of APC-like hybrid neutrophils. […] FIGS. 16E-16F show levels of IFN-γ (FIG. 16E) and GM-CSF (FIG. 16F) in supernatants collected from the cell culture of small-sized tumor digests where APC-like hybrid TANs were or were not previously detected (set-off was >10% among all TANs) (line represents mean±SEM, n=10, Mann-Whitney test for unpaired data). Lower panels represent the correlation between the absolute levels of IFN-γ and GM-CSF in the TCM, with the frequency of hybrid neutrophils in each tumor shown in the upper graphs. Non-parametric Spearman test was used to determine the degree of correlation. Representative dot plots from one of five experiments are shown in (FIG. 16A-16D).
(§1) For phenotypic and functional analysis PBNs, BMNs, and TANs were gated on live CD11b^+CD15^hiCD66b^+ cells. […] All data were acquired using the BD FACSCalibur or BD LSRFortessa™ (BD Bioscience) flow cytometers and analyzed using FlowJo software (TreeStar Inc.).

[1] = system: bone marrow neutrophils (BMNs); assay: Differentiation of BMNs into HLA-DR+CD14+ hybrid neutrophils (flow cytometry); assay type: cell-based, human; settings: for induction of the CD14+HLA-DR+ hybrid phenotype in BMNs: single factor at the low concentrations found in the TCMs
Description: Generation of BM-Derived Hybrid and Canonical Neutrophils. To differentiate BMNs into cells that resemble canonical TANs, purified long-lived BMNs were cultured for 7 days with a TCM (50% v/v) collected from a patient's tumor digest where a large number of hybrid TANs were previously unable to be identified by flow cytometry. […] Alternatively, hybrid-neutrophils were differentiated from BMNs with low doses IFN-γ (50 pg/ml) and GM-CSF (50 pg/ml) for 7 days. If it was observed that the formation of hybrid BMNs was less than 80% the HLA-DR+CD14+ hybrid cells from TCM treated BMNs were enriched by positive selection using magnetic beads coated with anti-HLA-DR antibodies or by flow cytometric cell sorting. The proliferation of BMNs during the differentiation was assessed by flow cytometry using BrdU Flow Kit (BD Pharmingen). BMNs were exposed to bromo-deoxyuridine for 6 hours.
To test the effect of hypoxia on hybrid neutrophil formation, BMNs were cultured for 6 days under normoxic and hypoxic culture conditions maintained in a 37° C. incubator containing 5% CO2, and either atmospheric 21% O2 or 5% O2 condition (Hypoxia Incubator Chamber, Stemcell Techology). BMNs were also cultured in the presence of hybrid-inducing TCM and cobalt chloride (25 μM) (MP Biomedicals LLC), an agent that induces the hypoxia-inducible factor-1α, the main transcriptional factor activated in hypoxic conditions.
Flow Cytometry. Flow cytometric analysis was performed according to standard protocols. Negative gating was based on a fluorescence minus one (FMO) strategy. To exclude dead cells from analysis, cells were stained with the Fixable Viability Dye eFluor® 450 (ebioscience), LIVE/DEAD® fixable dead cell stains (Molecular probes, Life Technologies), or Zombie Yellow™ Fixable Viability dye (Biolegend). To distinguish early-stage apoptotic and late-stage apoptotic/necrotic cells, cells were first stained with Fixable Viability Dye eFluor® 660 (eBioscience). Then cells were washed with the AnnexinV-Binding Buffer and stained with anti-AnnexinV Abs (FITC) in the AnnexinV-Binding Buffer for 10 min at RT. Cells were washed and analyzed by flow cytometry.
as §1

human Ikaros proteins = settings: literature (Kronke et al., 2014); cited from earlier work

## IFN-γ: Human recombinant IFN-γ purchased from PeproTech
PD-L1
  expression of PD-L1 on the HLA-DR+ BMNs: gradually induced the expression of PD-L1
[1]
  induction of the CD14+HLA-DR+ hybrid phenotype in BMNs: able to induce the phenotype, although in a relatively low percentage of cells

## GM-CSF: Human recombinant GM-CSF purchased from PeproTech
[1]
  induction of the CD14+HLA-DR+ hybrid phenotype in BMNs: able to induce the phenotype, although in a relatively low percentage of cells

## Nc1cccc2c1CN(C1CCC(=O)NC1=O)C2=O (stereo not drawn) [lenalidomide]
[1]; lenalidomide added to BM neutrophils treated with hybrid-inducing TCM (30% v/v), 6 days
  development of HLA-DR+CD14+ hybrid neutrophils: dramatically facilitated
Human Ikaros proteins
  effect on Ikaros proteins: causes proteasomal degradation of the human Ikaros proteins

## [Cl][Co][Cl] [cobalt chloride]
[1]; with hybrid-inducing TCM, cobalt chloride 25 μM (hypoxia-simulating), 6 days
  development of hybrid CD14+HLA-DR+ neutrophils: profoundly inhibited
